Some test systems named below: EKVX NSCLC; HOP-62 NSCLC; M14 melanoma; MDA-MB-231 breast; NCI-H522 lung; OVCAR-5 ovarian; RPMI-8226 leukemia; SF-268 CNS.
Common to all, as to assay: inhibition of tumour cell growth, NCI panel, 48 h

Structures are written as SMILES.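 Compound exposure: 48 hours, 5 concentrations, 96-well plates. Here, GI50 denotes the concentration required for 50% inhibition of growth. TGI: total growth inhibition.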 Bounds are passed on as bounds.

As to `O=[N+]([O-])c1cc[n+]([O-])c2ccccc12`, the GI50 in the test with EKVX NSCLC was 1220 nM; with HOP-62 NSCLC, 221 nM; in the test on M14 melanoma it was 182 nM; in the test on MDA-MB-231 breast, 282 nM; with NCI-H522 lung it was 214 nM; in the test on OVCAR-5 ovarian, 2420 nM. In addition, the GI50 was 43.9 nM in the test with RPMI-8226 leukemia and 282 nM with SF-268 CNS. The TGI in the test with EKVX NSCLC is 3.98 µM; in the test on HOP-62 NSCLC it was 1.13 µM; with M14 melanoma, 0.521 µM; in the test on MDA-MB-231 breast, 1.48 µM; with NCI-H522 lung, 0.754 µM; in the test with OVCAR-5 ovarian it was 6.1 µM. Also, the values for the TGI with RPMI-8226 leukemia and in the test on SF-268 CNS were 0.358 µM and 1.24 µM, respectively.

Regarding `N#Cc1nc(-c2ccc(F)cc2)oc1S(=O)(=O)N1CCCCC1`, the GI50 is 1860 nM with EKVX NSCLC; 5590 nM with HOP-62 NSCLC; 1770 nM in the test with M14 melanoma; 1860 nM in the test on MDA-MB-231 breast; 927 nM with NCI-H522 lung; 1710 nM with OVCAR-5 ovarian. The GI50 with SF-268 CNS is 2230 nM. The TGI turned out to be 3.96 µM in the test on EKVX NSCLC; 25.5 µM with HOP-62 NSCLC; 3.87 µM with M14 melanoma; 3.54 µM in the test with MDA-MB-231 breast; 3.1 µM in the test with NCI-H522 lung; 3.32 µM with OVCAR-5 ovarian. The compound further gave a TGI in the test on SF-268 CNS of 6.23 µM.

As to `COc1ccc(-c2cc(=O)n(-c3nc4ccccc4[nH]3)[nH]2)cc1OC`, the GI50 is 9360 nM with HOP-62 NSCLC; 6740 nM in the test on M14 melanoma; 19500 nM in the test with MDA-MB-231 breast; 2960 nM in the test on NCI-H522 lung; 28200 nM with OVCAR-5 ovarian; 4610 nM with RPMI-8226 leukemia. In the test on SF-268 CNS, the GI50 was 10200 nM. The TGI with HOP-62 NSCLC was greater than 100 µM; in the test with M14 melanoma, greater than 100 µM; in the test with MDA-MB-231 breast, greater than 100 µM; in the test on NCI-H522 lung it was 9.14 µM; in the test on OVCAR-5 ovarian it was greater than 100 µM; in the test on RPMI-8226 leukemia, 41.3 µM. The TGI with SF-268 CNS is greater than 100 µM.

With `CCC(=O)N1C/C(=C/c2ccc(Cl)cc2)C(=O)/C(=C/c2ccc(Cl)cc2)C1`, the GI50 in the test on HOP-62 NSCLC is 499 nM; in the test on M14 melanoma it was 992 nM; in the test on MDA-MB-231 breast it was 1050 nM; with NCI-H522 lung, 973 nM; in the test with OVCAR-5 ovarian it was 1480 nM; in the test with RPMI-8226 leukemia, 101 nM. The GI50 in the test with SF-268 CNS is 1170 nM. Besides, the TGI in the test on HOP-62 NSCLC was 1.53 µM; with M14 melanoma it was 2.6 µM; with MDA-MB-231 breast it was 2.9 µM; in the test on NCI-H522 lung it was 2.4 µM; in the test with OVCAR-5 ovarian, 3 µM; in the test on RPMI-8226 leukemia, 0.911 µM. Moreover, the TGI in the test with SF-268 CNS amounted to 3.16 µM.

Take `O=c1c2c([nH]c3nccn13)CCC2`: the TGI in the test with EKVX NSCLC, in the test with HOP-62 NSCLC, in the test with M14 melanoma, in the test on MDA-MB-231 breast, in the test on OVCAR-5 ovarian and in the test on RPMI-8226 leukemia was greater than 10 µM in each case. This compound also displayed a TGI in the test with SF-268 CNS greater than 10 µM.

As for `COc1ccc([C@H](CC(=O)O)N2CCN(CCCc3ccc4c(n3)NCCC4)C2=O)cn1`, the GI50 in the test with HOP-62 NSCLC is 414 nM; in the test on M14 melanoma, greater than 100000 nM; with MDA-MB-231 breast, 254 nM; in the test with NCI-H522 lung, 114 nM; in the test with OVCAR-5 ovarian it was 403 nM; in the test on RPMI-8226 leukemia, greater than 100000 nM. Also, the GI50 with SF-268 CNS is 754 nM. Further, the TGI in the test on HOP-62 NSCLC was greater than 100 µM; in the test with M14 melanoma it was greater than 100 µM; with NCI-H522 lung, 0.267 µM; in the test on OVCAR-5 ovarian, greater than 100 µM; with RPMI-8226 leukemia it was greater than 100 µM; with SF-268 CNS, greater than 100 µM.

For the compound `COc1cc2c(cc1OC)-c1ncc3c(OC)ccc(OC)c3c1C2`, the GI50 in the test with EKVX NSCLC is 16900 nM; in the test on HOP-62 NSCLC, 21400 nM; in the test with M14 melanoma, greater than 100000 nM; in the test on MDA-MB-231 breast, greater than 100000 nM; with NCI-H522 lung it was 2940 nM; in the test on OVCAR-5 ovarian, 44000 nM. Also, the GI50 with RPMI-8226 leukemia is 6440 nM. In addition, the TGI in the test on EKVX NSCLC was 54.9 µM; in the test on HOP-62 NSCLC it was 61.3 µM; in the test with M14 melanoma, greater than 100 µM; in the test on MDA-MB-231 breast it was greater than 100 µM; in the test with NCI-H522 lung it was 31.8 µM; with OVCAR-5 ovarian, greater than 100 µM. This compound also gave a TGI in the test on RPMI-8226 leukemia of 78.2 µM.

As for `C/C(=C\c1ccn(-c2ccccc2N)n1)[C@@H]1C[C@@H]2O[C@]2(C)CCC[C@H](C)[C@H](O)[C@@H](C)C(=O)C(C)(C)[C@@H](O)CC(=O)O1`, the GI50 in the test on EKVX NSCLC was 684 nM; in the test on HOP-62 NSCLC it was 112 nM; in the test with MDA-MB-231 breast it was 247 nM; in the test with NCI-H522 lung, 51.1 nM; in the test with OVCAR-5 ovarian, 102 nM; in the test with RPMI-8226 leukemia, 18.8 nM. For the same compound, the GI50 with SF-268 CNS was 111 nM. The TGI in the test with EKVX NSCLC is greater than 50 µM; with HOP-62 NSCLC it was greater than 50 µM; in the test on MDA-MB-231 breast, greater than 50 µM; in the test on NCI-H522 lung, 0.386 µM; in the test with OVCAR-5 ovarian it was greater than 40.9 µM; in the test on RPMI-8226 leukemia it was greater than 24.1 µM. The same compound displayed a TGI in the test with SF-268 CNS greater than 50 µM.

For `Cc1cn2c(/C=C3/C(=O)Nc4c3ccc3ccccc43)c(C(F)(F)F)nc2s1`, the GI50 in the test on EKVX NSCLC is 4230 nM; with HOP-62 NSCLC, 586 nM; with M14 melanoma it was 526 nM; with NCI-H522 lung, 584 nM; in the test with OVCAR-5 ovarian it was 9990 nM; in the test with SF-268 CNS it was 3220 nM. In addition, the TGI in the test on EKVX NSCLC was greater than 100 µM; in the test with HOP-62 NSCLC it was 93.1 µM; with M14 melanoma, 11.7 µM; in the test on NCI-H522 lung, greater than 100 µM; in the test on OVCAR-5 ovarian, greater than 100 µM; in the test on SF-268 CNS, greater than 100 µM.

Take `CCCCNNC(=O)c1ccc(Br)cc1`: the GI50 was 2980 nM with HOP-62 NSCLC; 2460 nM in the test with M14 melanoma; 9030 nM in the test with MDA-MB-231 breast; 1270 nM with NCI-H522 lung; 1010 nM in the test on OVCAR-5 ovarian; 956 nM in the test on RPMI-8226 leukemia. Also, in the test on SF-268 CNS, the GI50 was 8410 nM. For the same compound, the TGI is greater than 34.2 µM in the test on HOP-62 NSCLC; greater than 50 µM in the test with M14 melanoma; greater than 50 µM with MDA-MB-231 breast; greater than 22 µM with NCI-H522 lung; greater than 15.3 µM in the test with OVCAR-5 ovarian; greater than 50 µM in the test on RPMI-8226 leukemia. The compound also yielded a TGI in the test with SF-268 CNS greater than 50 µM.

As for `O=[N+]([O-])c1ccc(NN=C2CN3CCN(C2)c2ccccc23)c([N+](=O)[O-])c1`, the TGI in the test on EKVX NSCLC, in the test on HOP-62 NSCLC, with M14 melanoma, in the test with MDA-MB-231 breast, with NCI-H522 lung and in the test with OVCAR-5 ovarian was greater than 100 µM in each case. Further, in the test on SF-268 CNS, the TGI is greater than 100 µM.

(Values after PubChem BioAssay (NCI).)
